Read-outs that look alike come from different tables or passages of the source.
Key:
[1] = biological target: T1, zinc ion binding site mutant (H17A and H19A) GPR39 (Mus musculus, UniProt Q5U431, H17A/H19A); assay: Calcium imaging on 293T cells transiently transfected with zinc ion binding site mutant GPR39; assay type: cell-based; settings: transiently transfected HEK293T cells
T1 construct: 3HA (N); P2A-mCherry (C); expressed in transfected cells; host or cells: HEK293T, transient (Lipofectamine 3000)
T1 sequence (Q5U431 1-456 H17A/H19A): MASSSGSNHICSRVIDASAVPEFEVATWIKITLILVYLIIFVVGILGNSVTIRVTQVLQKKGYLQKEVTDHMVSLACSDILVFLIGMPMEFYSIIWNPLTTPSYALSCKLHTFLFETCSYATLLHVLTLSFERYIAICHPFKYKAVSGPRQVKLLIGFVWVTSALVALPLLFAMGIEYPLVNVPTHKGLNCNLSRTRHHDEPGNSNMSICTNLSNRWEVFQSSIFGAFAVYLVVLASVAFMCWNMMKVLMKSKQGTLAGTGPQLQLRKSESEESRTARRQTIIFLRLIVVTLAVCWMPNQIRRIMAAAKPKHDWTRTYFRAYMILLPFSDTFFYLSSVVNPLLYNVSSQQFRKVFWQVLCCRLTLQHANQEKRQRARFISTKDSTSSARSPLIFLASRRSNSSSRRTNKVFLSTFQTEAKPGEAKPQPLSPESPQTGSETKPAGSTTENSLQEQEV
Excerpt: In the present application, the bile acid and/or derivative thereof is capable of activating the GPR39 independent of a zinc ion binding site. For example, in some embodiments, murine-derived wild-type (WT) GPR39 or zinc ion binding site mutant (H17A and H19A) GPR39 are transiently expressed in 293T cells by using lipofectamine3000 transfection kit. The activation effect of LCAS on the wild-type (WT) and mutants (H17A and H19A) is detected by calcium imaging.
The pCMV6-3HA-mGPR39-P2A-mCherry vector carrying murine-derived GPR39 gene and having a total length of about 7 Kbp was selected as the PCR template, and a site-directed mutant vector was obtained by PCR site-directed mutagenesis. With the mutation site as the centre, a forward primer m39-H17A-F and a reverse primer m39-H17A-R were designed by extending approximately 15 bp each way, which sequences were respectively shown in Table 3 below. At 1 bp upstream of the mutation site, a 15 bp complementary sequence to the forward primer was designed, and the length of the reverse primer was designed to maintain the annealing temperature of the primer at 60° C. A high-fidelity DNA polymerase (Phanta Max Super-fidelity DNA polymerase, Vazyme) was used for site-directed PCR. 5 μL cutsmart buffer (NEB) and 1 μL restriction endonuclease DpnI (NEB) were added into the PCR product for overnight digestion, and then 10 μL of the product was transferred into 50 μL DH5α for heat shock transformation. The corresponding resistant solid LB medium was selected to coat and culture the product and enable it grow overnight at 37° C. A single colony was picked for inoculation, and the bacteria were shaken to extract the plasmid which was verified by sequencing. A monoclonal vector which had been sequenced to be correct was selected and marked as pCMV6-3HA-mGPR39(H17A&H19A)-P2A-mCherry, which structure was shown in FIG. 5.
HEK293T cells were seeded in a PDL-coated 96-well plate (coring Co.) at an appropriate density (about 3×10^4 cells/well) and cultured under conditions of 37° C. and 5% CO2. […]

[2] = biological target: T2, human GPR39 receptors on human GPR39-2 cell lines (Homo sapiens, UniProt O43194); assay: FLIPR calcium imaging on human GPR39-2 cell line stably expressing human GPR39; assay type: cell-based; settings: for EC50: human GPR39-2 cells
T2 construct: P2A-mCherry (C)
T2 sequence (O43194 1-453): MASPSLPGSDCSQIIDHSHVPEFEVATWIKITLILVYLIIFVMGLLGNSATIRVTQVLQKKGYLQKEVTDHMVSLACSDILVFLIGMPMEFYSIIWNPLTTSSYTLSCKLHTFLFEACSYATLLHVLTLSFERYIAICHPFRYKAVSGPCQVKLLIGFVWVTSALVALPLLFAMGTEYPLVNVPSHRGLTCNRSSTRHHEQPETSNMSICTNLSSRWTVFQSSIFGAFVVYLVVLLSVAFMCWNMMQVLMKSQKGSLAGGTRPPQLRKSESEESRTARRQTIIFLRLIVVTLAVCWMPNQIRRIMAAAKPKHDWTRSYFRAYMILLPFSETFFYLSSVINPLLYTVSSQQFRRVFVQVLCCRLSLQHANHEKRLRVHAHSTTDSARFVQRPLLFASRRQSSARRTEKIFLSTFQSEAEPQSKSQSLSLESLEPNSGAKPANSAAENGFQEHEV
Excerpt: The human GPR39 cDNA vector was purchased from WZ Biosciences Inc., Shandong. It was cloned onto a lentiviral vector PLVXK-hGPR39-P2A-mCherry (FIG. 10) through PCR amplification using primers hGPR39-F (which sequence was shown as set forth in SEQshown as set forth in SEQ ID NO: 15) and hGPR39-R (which sequence was shown as set forth in SEQ shown as set forth in SEQ ID NO: 16), in which the sequence of the target gene human GPR39 cDNA was shown as set forth in SEQ shown as set forth in SEQ ID NO: 14. A cell line human GPR39-2 stably expressing human GPR39 gene was constructed according to the method of Example 1.

EC50 ([2]; no added zinc ions, read-out: EC50 Only agonist)	Compound	EC50 ([1]; agonist alone)	EC50 ([1]; + 4 μM zinc ions)	EC50 ([2]; EC50 Agonist + 4 μM zinc ions, 4 μM zinc ions)	intracellular calcium signal response of human GPR39-2 ([2]; FIG. 9)
12 ± 2.8 µM	[Zn+2] [Zinc ions, reference compound]	> 100 µM	–	–	–
–	C[C@H](CCC(=O)O)[C@H]1CC[C@H]2[C@@H]3CC[C@@H]4C[C@H](OS(=O)(=O)O)CC[C@]4(C)[C@H]3CC[C@]12C [LCAS]	24 ± 0.8 µM	8.7 ± 0.8 µM	0.97 ± 0.3 µM	capable of inducing intracellular calcium signal response

From patent publication US12569502B2, “Use of bile acids and derivatives thereof in preparation of GPR39 agonist” (PEKING UNIVERSITY, priority 2019, dated 2026)
